Measurements taken from PubChem BioAssay (NCI).
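Results reflect a 48-hour exposure of cells in 96-well plates to compound at five concentrations. At the GI50, growth is halved. TGI marks complete inhibition of growth.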

Tests used:
Test in all cases: NCI tumour cell line growth inhibition, 48 h
OVCAR-8 ovarian = tested on: OVCAR-8 ovarian
HCT-116 colon = tested on: HCT-116 colon
KM12 colon = tested on: KM12 colon
DMS 273 small cell lung = tested on: DMS 273 small cell lung
KM20L2 colon = tested on: KM20L2 colon
CCRF-CEM leukemia = tested on: CCRF-CEM leukemia
DLD-1 colon = tested on: DLD-1 colon
786-0 renal = tested on: 786-0 renal
MDA-N = tested on: MDA-N
OVCAR-5 ovarian = tested on: OVCAR-5 ovarian
HCT-15 colon = tested on: HCT-15 colon
MCF7 breast = tested on: MCF7 breast
HL-60(TB) leukemia = tested on: HL-60(TB) leukemia
HOP-18 NSCLC = tested on: HOP-18 NSCLC
HS 578T breast = tested on: HS 578T breast
SNB-78 CNS = tested on: SNB-78 CNS

| SMILES | TGI (OVCAR-8 ovarian) [µM] | TGI (HCT-116 colon) [µM] | TGI (KM12 colon) [µM] | TGI (DMS 273 small cell lung) [µM] | TGI (KM20L2 colon) [µM] | TGI (CCRF-CEM leukemia) [µM] | TGI (DLD-1 colon) [µM] | TGI (786-0 renal) [µM] | TGI (MDA-N) [µM] | TGI (OVCAR-5 ovarian) [µM] | TGI (HCT-15 colon) [µM] | TGI (MCF7 breast) [µM] | TGI (HL-60(TB) leukemia) [µM] | TGI (HOP-18 NSCLC) [µM] | TGI (HS 578T breast) [µM] | GI50 (HCT-116 colon) [µM] | GI50 (KM12 colon) [µM] | GI50 (KM20L2 colon) [µM] | TGI (SNB-78 CNS) [µM] | GI50 (DMS 273 small cell lung) [µM] |
| --- | --- | --- | --- | --- | --- | --- | --- | --- | --- | --- | --- | --- | --- | --- | --- | --- | --- | --- | --- | --- |
| CC(NC(C)(C)C)C(=O)c1cccc(Cl)c1 (stereo not given) | > 100 | > 100 | > 100 | > 100 | > 100 | > 100 | > 100 | > 100 | – | – | – | – | – | – | – | – | – | – | – | – |
| N#C/C(=C\c1c[nH]c2ccccc12)C(=O)c1ccc(O)c(O)c1 | > 100 | > 84.8 | > 100 | > 100 | > 100 | > 36.2 | > 100 | > 62 | > 100 | > 100 | > 100 | > 100 | 59.5 | 93.5 | > 100 | – | – | – | – | – |
| O=C(N/N=C/c1cc(Cl)cc(Cl)c1O)c1ccccc1O | 13.9 | 14.5 | 34.7 | – | – | > 100 | – | – | – | 7.82 | 15.7 | – | – | – | – | 2.48 | 3.72 | 4.85 | – | – |
| CCOC(=O)CSc1nnc(C(Sc2nc(-c3ccccc3)c(-c3ccccc3)[nH]2)C(C)C)n1-c1ccccc1 (stereo not given) | > 31.6 | > 31.6 | > 31.6 | > 10 | > 10 | 28.4 | > 10 | > 31.6 | > 100 | 28.5 | > 31.6 | > 100 | > 31.6 | – | – | – | – | – | > 10 | – |
| COc1cc(/C=C(/C#N)C(N)=O)ccc1O | > 100 | > 100 | > 100 | > 100 | > 100 | > 100 | > 100 | – | – | > 100 | > 100 | > 100 | > 100 | > 100 | – | – | – | – | > 100 | – |
| CCCc1ccc(NCc2cc(OC)c(OC)c(OC)c2)cc1 | > 100 | 48.3 | 55.2 | 31.8 | > 100 | 49 | 48.1 | 50.3 | – | > 100 | 32.1 | – | – | > 100 | – | – | – | – | > 100 | 16.2 |
| Cc1ccc(CC(C)N)cc1 (stereo not given) | > 100 | > 100 | > 100 | > 100 | > 100 | > 100 | > 100 | > 100 | – | > 100 | > 100 | – | > 100 | > 100 | – | – | – | – | > 100 | – |
